Assays:
vitamin D receptor (VDR) = biological target: T1, vitamin D receptor (VDR) (Bos taurus, UniProt Q28037); experiment: Binding assay for calf thymus vitamin D receptor (VDR); details: relative to 1α,25-dihydroxyvitamin D3 = 1; ratio of concentrations for 50% inhibition of [3H]-1α,25-dihydroxyvitamin D3 binding to calf thymus VDR
T1 construct: vitamin D receptor (VDR) derived from calf thymus was evaluated; purchased Yamasa Shoyu Co., Ltd. (Choshi, Chiba, Japan) Lot; No. 111931; host or cells: calf thymus (tissue preparation)
T1 sequence (Q28037 1-426): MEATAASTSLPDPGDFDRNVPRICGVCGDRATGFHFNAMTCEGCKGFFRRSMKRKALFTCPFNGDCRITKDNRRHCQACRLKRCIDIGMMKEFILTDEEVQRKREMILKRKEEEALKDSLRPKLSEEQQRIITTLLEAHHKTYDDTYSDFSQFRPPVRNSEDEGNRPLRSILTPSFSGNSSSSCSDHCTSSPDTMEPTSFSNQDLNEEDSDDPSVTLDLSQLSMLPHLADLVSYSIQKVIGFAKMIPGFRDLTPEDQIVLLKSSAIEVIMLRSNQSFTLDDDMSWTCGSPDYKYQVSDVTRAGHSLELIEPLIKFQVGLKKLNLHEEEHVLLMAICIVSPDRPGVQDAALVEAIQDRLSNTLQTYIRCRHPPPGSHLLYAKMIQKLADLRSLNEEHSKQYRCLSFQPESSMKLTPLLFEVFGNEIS
Method: Binding Assay for Calf Thymus Vitamin D Receptor (VDR)
The binding ability of the compounds of the present inventions described in the above Examples to vitamin D receptor (VDR) derived from calf thymus was evaluated.
The binding assay was carried out according to the manufacturer's instruction of Yamasa Shoyu Co., Ltd. as follows.
An EtOH solution (sample) containing an increasing amount of each 1α,25-dihydroxyvitamin D3 (as a standard reference material), and Compounds YI-1a, YI-1b, YI-2a, YI-3a, YI-3b, YI-4a, YI-4b, YI-5a, YI-5b, 20-Epi-YI-1a, 20-Epi-YI-1b, 20-Epi-YI-2a, 20-Epi-YI-3a, 20-Epi-YI-4a, 20-Epi-YI-4b, 20-Epi-YI-5a, 20-Epi-YI-5b, 20-Epi-YI-6a, 20-Epi-YI-6b, 20-Epi-YI-7a, 20-Epi-YI-7b, 20-Epi-YI-8a, and 20-Epi-YI-8b was prepared, that is, dilution series were prepared wherein final concentrations of each compounds in a mixture, which is prepared by following step, of receptor solutions, samples, and [^3H]-1α,25-dihydroxyvitamin D3 solutions are 100 nM, 30 nM 10 nM, 1 nM, 300 pM, 100 pM, 30 pM, 10 pM, 3 pM, and 1 pM.
Freeze-dried calf thymus vitamin D receptors (Lot. No. 111931) were purchased from Yamasa Shoyu Co., Ltd. (Choshi, Chiba, Japan) and were dissolved in 45 mL of phosphate buffer (0.3 M KCl, 0.05 M K2HPO4—KH2PO4, pH 7.4) just before use to use as a receptor solution.
50 μL of sample of Compounds YI-1a, YI-1b, YI-2a, YI-3a, YI-3b, YI-4a, YI-4b, YI-5a, YI-5b, 20-Epi-YI-1a, 20-Epi-YI-1b, 20-Epi-YI-2a, 20-Epi-YI-3a, 20-Epi-YI-4a, 20-Epi-YI-4b, 20-Epi-YI-5a, 20-Epi-YI-5b, 20-Epi-YI-6a, 20-Epi-YI-6b, 20-Epi-YI-7a, 20-EPi-YI-7b, 20-Epi-YI-8a, 20-Epi-YI-8b, or 1α,25-dihydroxyvitamin D3 and 500 μL of the receptor solution were pipetted into glass culture tubes. The mixture was vortexed 2-3 times, and incubated for 1 h at room temperature. To each tubes, [^3H]-1α,25-dihydroxyvitamin D3 (ca. 10000 dpm) in 50 μL of EtOH was added, the mixture was vortexed 2-3 times, and the whole mixture was incubated for 18 h at 4° C. (in a refrigerator). Then, 200 μL of DCC (dextran-coated charcoal; purchased from Yamasa Shoyu) was added to each tubes, and allowed to stand for 30 min at 4° C. Bound and free [^3]-1α,25-dihydroxyvitamin D3 were separated by centrifugation at 3000 rpm for 15 min at 4° C. Aliquots (500 μL) of the supernatant were put into vial bottles from each tube, and were mixed with 10 mL of ACS-II fluid scintillator (Amersham, Buckinghamshire, U.K.) and submitted for radioactivity counting.
The relative binding affinity of the vitamin D derivatives of the present inventions to VDR was calculated regarding binding affinity of 1α,25-dihydroxyvitamin D3 to VDR as 1. The following equation was used to calculate the relative VDR binding affinity: X=y/x
X: the relative binding affinity of the compound of the present inventions to VDR
y: the concentration of 1α,25-dihydroxyvitamin D3 required for 50% inhibition of binding [^3H]-1α,25-dihydroxyvitamin D3 to VDR
x: the concentration of the compound of the present inventions required for 50% inhibition of binding [^3H]-1α,25-dihydroxyvitamin D3 to VDR

cellular differentiation = details: compared with 1,25-(OH)2D3; cited from earlier work

SMILES | VDR affinity (relative binding affinity X=y/x) (vitamin D receptor (VDR)) | cellular effects (cellular differentiation)
C[C@@H](CCCC(C)(C)O)C1CCC2/C(=C/C=C3C[C@@H](O)C(=CCO)[C@H](O)C3)CCCC21C (stereo partly drawn) [Compound 20-Epi-YI-8a] | 1.6 | 
C[C@@H](CCCC(C)(C)O)C1CCC2/C(=C/C=C3C[C@@H](O)C(CCO)[C@H](O)C3)CCCC21C (stereo partly drawn) [Compound 20-Epi-YI-7b] | 1/5 | 
C[C@@H](CCCC(C)(C)O)C1CCC2/C(=C/C=C3C[C@@H](O)C(CCO)[C@H](O)C3)CCCC21C (stereo partly drawn) [Compound 20-Epi-YI-7a] | 1 | 
C[C@@H](CCCC(C)(C)O)C1CCC2/C(=C/C=C3C[C@@H](O)C4(CO4)[C@H](O)C3)CCCC21C (stereo partly drawn) [Compound 20-Epi-YI-1a, (20S)-1α,25-dihydroxy-2β,2′-epoxy-19-norvitamin D3] | 1/2 | 
C[C@H](CCCC(C)(C)O)C1CCC2/C(=C/C=C3C[C@@H](O)C4(CO4)[C@H](O)C3)CCCC21C (stereo partly drawn) [YI-1a, 1α,25-dihydroxy-2β,2′-epoxy-19-norvitamin D3] | 1/23 | 
C[C@@H](CCCC(C)(C)O)C1CCC2/C(=C/C=C3C[C@@H](O)C(OCCO)[C@H](O)C3)CCCC21C (single isomer, unassigned) [Compound 20-Epi-YI-6a] | 1 | 
C[C@H](CCCC(C)(C)O)C1CCC2/C(=C/C=C3C[C@@H](O)C4(CO4)[C@H](O)C3)CCCC21C (stereo partly drawn) [YI-1b, 1α,25-dihydroxy-2α,2′-epoxy-19-norvitamin D3] | 1/290 | 
C[C@H](CCCC(C)(C)O)[C@H]1CC[C@H]2/C(=C/C=C3C[C@@H](O)C[C@H](O)C3)CCC[C@]12C [19-nor-1,25-(OH)2D3, 19-nor-1α,25-dihydroxyvitamin D3] |  | equivalent to 1,25-(OH)2D3
C[C@@H](CCCC(C)(C)O)C1CCC2/C(=C/C=C3C[C@@H](O)C(OCCO)[C@H](O)C3)CCCC21C (single isomer, unassigned) [Compound 20-Epi-YI-6b] | 5 | 
C[C@@H](CCCC(C)(C)O)C1CCC2/C(=C/C=C3C[C@@H](O)C(=CCO)[C@H](O)C3)CCCC21C (stereo partly drawn) [Compound 20-Epi-YI-8b, (20S)-1α,25-dihydroxy-2-[2-(hydroxyl)-ethylidene]-19-norvitamin D3] | 1/50 | 

Now from value to compound, other results behind:

VDR affinity (relative binding affinity X=y/x) (vitamin D receptor (VDR)) | SMILES | cellular effects (cellular differentiation)
1/20 | CCC1(O)[C@H](O)CC(=C/C=C2\CCCC3(C)C2CCC3[C@@H](C)CCCC(C)(C)O)C[C@H]1O (stereo partly drawn) [Compound 20-Epi-YI-4a, (20S)-1α,2β,25-trihydroxy-2α-ethyl-19-norvitamin D3] | 
1/3 | C[C@H](CCCC(C)(C)O)C1CCC2/C(=C/C=C3C[C@@H](O)C(C)(O)[C@H](O)C3)CCCC21C (stereo partly drawn) [YI-3a, 1α,2β,25-trihydroxy-2α-methyl-19-norvitamin D3] | 
1/730 | C[C@H](CCCC(C)(C)O)C1CCC2/C(=C/C=C3C[C@@H](O)C(C)(O)[C@H](O)C3)CCCC21C (stereo partly drawn) [YI-3b, 1α,2α,25-trihydroxy-2β-methyl-19-norvitamin D3] | 
1/43 | C[C@H](CCCC(C)(C)O)C1CCC2/C(=C/C=C3C[C@@H](O)C(O)(CF)[C@H](O)C3)CCCC21C (stereo partly drawn) [YI-2a, 1α,2β,25-trihydroxy-2α-fluoromethyl-19-norvitamin D3] | 
1/50 | CCC1(O)[C@H](O)CC(=C/C=C2\CCCC3(C)C2CCC3[C@H](C)CCCC(C)(C)O)C[C@H]1O (stereo partly drawn) [YI-4a, 1α,2β,25-trihydroxy-2α-ethyl-19-norvitamin D3] | 
1 | C[C@@H](CCCC(C)(C)O)C1CCC2/C(=C/C=C3C[C@@H](O)C(C)(O)[C@H](O)C3)CCCC21C (stereo partly drawn) [Compound 20-Epi-YI-3a, (20S)-1α,2β,25-trihydroxy-2α-methyl-19-norvitamin D3] | 
1/1000 | CCC1(O)[C@H](O)CC(=C/C=C2\CCCC3(C)C2CCC3[C@@H](C)CCCC(C)(C)O)C[C@H]1O (stereo partly drawn) [Compound 20-Epi-YI-4b, (20S)-1α,2α,25-trihydroxy-2β-ethyl-19-norvitamin D3] | 
1/10 | COCC1(O)[C@H](O)CC(=C/C=C2\CCCC3(C)C2CCC3[C@@H](C)CCCC(C)(C)O)C[C@H]1O (stereo partly drawn) [Compound 20-Epi-YI-5b, (20S)-1α,2α,25-trihydroxy-2β-methoxymethyl-19-norvitamin D3] | 
1/820 | COCC1(O)[C@H](O)CC(=C/C=C2\CCCC3(C)C2CCC3[C@H](C)CCCC(C)(C)O)C[C@H]1O (stereo partly drawn) [YI-5b, 1α,2α,25-trihydroxy-2β-methoxymethyl-19-norvitamin D3] | 
1/2000 | CCC1(O)[C@H](O)CC(=C/C=C2\CCCC3(C)C2CCC3[C@H](C)CCCC(C)(C)O)C[C@H]1O (stereo partly drawn) [YI-4b, 1α,2α,25-trihydroxy-2β-ethyl-19-norvitamin D3] | 
1/5 | COCC1(O)[C@H](O)CC(=C/C=C2\CCCC3(C)C2CCC3[C@@H](C)CCCC(C)(C)O)C[C@H]1O (stereo partly drawn) [Compound 20-Epi-YI-5a, (20S)-1α,2β,25-trihydroxy-2α-methoxymethyl-19-norvitamin D3] | 
1/26 | COCC1(O)[C@H](O)CC(=C/C=C2\CCCC3(C)C2CCC3[C@H](C)CCCC(C)(C)O)C[C@H]1O (stereo partly drawn) [YI-5a, 1α,2β,25-trihydroxy-2α-methoxymethyl-19-norvitamin D3] | 
2 | C[C@@H](CCCC(C)(C)O)C1CCC2/C(=C/C=C3C[C@@H](O)C(O)(CF)[C@H](O)C3)CCCC21C (stereo partly drawn) [Compound 20-Epi-YI-2a, (20S)-1α,2β,25-trihydroxy-2α-fluoromethyl-19-norvitamin D3] | 
1/5 | C[C@@H](CCCC(C)(C)O)C1CCC2/C(=C/C=C3C[C@@H](O)C4(CO4)[C@H](O)C3)CCCC21C (stereo partly drawn) [Compound 20-Epi-YI-1b, (20S)-1α,25-dihydroxy-2α,2′-epoxy-19-norvitamin D3] | 

From US7402688B2, “2,2-Di-substituted 1alpha,25-dihydroxy-19-norvitamin D derivative” (Wisconsin Alumni Research Foundation, priority 2002, dated 2008)
